What follows are compounds tested against T1, p53/MDM2 complex (Homo sapiens, UniProt Q00987) (assay: Inhibitory effect on p53/MDM2 complex binding, cell lysate of human glioblastoma U343MG cells). Settings: 10 uM; cell lysate of human glioblastoma (GBM) cells U343MG; read-out: % inhibition at 10 uM of p53/MDM2 complex binding.
T1 construct: Test performed on cell lysate of human glioblastoma (GBM) cells U343MG; endogenous in cells; host or cells: U343MG human glioblastoma cells (lysate)
T1 sequence (Q00987 whole entry, one chain of several): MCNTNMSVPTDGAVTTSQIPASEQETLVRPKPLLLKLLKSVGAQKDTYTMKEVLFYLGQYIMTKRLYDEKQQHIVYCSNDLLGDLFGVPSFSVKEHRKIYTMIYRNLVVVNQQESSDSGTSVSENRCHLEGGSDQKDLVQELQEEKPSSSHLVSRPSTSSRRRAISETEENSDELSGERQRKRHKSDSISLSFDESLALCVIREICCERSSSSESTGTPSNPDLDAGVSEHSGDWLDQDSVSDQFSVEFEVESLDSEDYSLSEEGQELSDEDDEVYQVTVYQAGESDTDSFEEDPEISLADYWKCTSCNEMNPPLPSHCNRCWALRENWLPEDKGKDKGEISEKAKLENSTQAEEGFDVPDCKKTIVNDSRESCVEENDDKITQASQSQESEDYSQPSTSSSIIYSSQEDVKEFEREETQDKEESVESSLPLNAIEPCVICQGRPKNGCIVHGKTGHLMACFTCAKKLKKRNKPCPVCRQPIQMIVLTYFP
Method: Test performed on cell lysate of human glioblastoma (GBM) cells U343MG (1,2).
`CCNC(=O)COc1ccc2c(c1)S(=O)(=O)Cc1c-2[nH]c2ccc(F)cc12` [RA13] showed an inhibition at 10 µM of 22%.
Work on `Clc1ccc2[nH]c3c(c2c1)COc1ccccc1-3` [RA15] yielded an inhibition at 10 µM of less than 5%.
With `COc1ccc2c(c1)-c1[nH]c3ccc(Cl)cc3c1CO2` [RA16] the inhibition at 10 µM was less than 5%.
With `CC(=O)OCC1=C(C(=O)O)N2C(=O)[C@@H](NC(=O)COc3ccc4c(c3)CCc3c-4[nH]c4ccc(F)cc34)[C@H]2SC1` [RM53, (6R,7R)-7-(2-[(8-fluoro-6,11-dihydro-5H-benzo[a]carbazol-3-yl)oxy]acetamido)-3-(acetoxymethyl)-8-oxy-5-thia-1-azabicyclo[4.2.0]oct-2-ene-2-carboxylic acid] the inhibition at 10 µM was less than 5%.
In the case of `CN(C)CCCn1c2ccc(Cl)cc2c2ccc3cc(OCC(=O)O)ccc3c21` [RM58], the inhibition at 10 µM is reported as 58%.

Same assay, conditions: cell lysate of human glioblastoma (GBM) cells U343MG
In the case of `CC(=O)OCC1=C(C(=O)OC(C)(C)C)N2C(=O)[C@@H](NC(=O)COc3ccc4c(c3)CCc3c-4[nH]c4cccc([N+](=O)[O-])c34)[C@H]2SC1` [GA09a], the IC50 is reported as 650 ± 50 nM.
Work on `CC(=O)OCC1=C(C(=O)OC(C)(C)C)N2C(=O)[C@@H](NC(=O)COc3ccc4c(c3)CCc3c-4[nH]c4cc([N+](=O)[O-])ccc34)[C@H]2SC1` [GA09b] yielded an IC50 of 225 ± 20 nM.
`COc1cc2c(cc1OC)-c1c(c3c(N)cccc3n1CCCN(C)C)CCC2` [GA17M8] gave an IC50 of 12700 ± 1500 nM.
Work on `O=C(COc1ccc2c(c1)S(=O)(=O)CCc1c-2[nH]c2ccc(F)cc12)NCc1ccc(F)c(F)c1` [RA1] yielded an IC50 of 920 ± 20 nM.
`COc1ccc2[nH]c3c(c2c1)CCCc1cc(OCC(=O)O)ccc1-3` [RA2] was tested, and the IC50 was 2900 ± 120 nM.
For `CN(C)C(=O)C(CCCNC(=O)OCc1ccccc1)NC(=O)COc1ccc2c(c1)S(=O)(=O)NCc1c-2[nH]c2ccc(F)cc12` (stereo not shown) [RA3], the IC50 was 620 ± 50 nM.
`CNC(=O)C(CCCNC(=O)OCc1ccccc1)NC(=O)COc1ccc2c(c1)OCc1c-2[nH]c2ccc(F)cc12` (stereo not shown) [RA18] was tested, and the IC50 was 1350 ± 150 nM.
For `CNC(=O)C(CCCNC(=O)OCc1ccccc1)NC(=O)COc1ccc2c(c1)OCc1c-2[nH]c2ccc(OCC(=O)NC(CCc3ccccc3)C(=O)N(C)C)cc12` (stereo not shown) [RA19], the IC50 was 450 ± 15 nM.
Work on `CNC(=O)C(CCCNC(=O)OCc1ccccc1)NC(=O)COc1ccc2c(c1)NCc1c-2[nH]c2ccc(F)cc12` (stereo not shown) [RA20] yielded an IC50 of 1550 ± 250 nM.
Compound `CC(=O)OCC1=C(C(=O)OC(C)(C)C)N2C(=O)C(NC(=O)COc3ccc4c(c3)S(=O)(=O)Cc3c-4[nH]c4ccc(F)cc34)C2SC1` (stereo not shown) [RA25] has an IC50 of 143 ± 16 nM.
`COc1ccc(COC(=O)C2N3C(=O)C(NC(=O)COc4ccc5c(c4)S(=O)(=O)Nc4c-5[nH]c5ccc(Br)cc45)C3SC2(C)C)cc1` (stereo not shown) [RA26] was tested, and the IC50 was 120 ± 90 nM.
`CCNC(=O)CO/N=C1/Cc2c([nH]c3ccc(F)cc23)-c2ccc(OCC(=O)NC3C(=O)N4C3SC(C)(C)C4C(=O)OCc3ccc(OC)cc3)cc21` (stereo not shown) [RA29] was tested, and the IC50 was 100 ± 30 nM.
`CCNC(=O)C(CCCNC(=O)OCc1ccccc1)NC(=O)CC1C(NC(=O)COc2ccc3c(c2)S(=O)(=O)Cc2c-3[nH]c3ccc(F)cc23)C(=O)N1CC(=O)OCc1ccc(OC)cc1` (stereo not shown) [RA30] showed an IC50 of 150 ± 10 nM.
With `CC(=O)OCC1=C(C(=O)OC(C)(C)C)N2C(=O)C(NC(=O)COc3ccc4c(c3)OCc3c-4[nH]c4ccc(F)cc34)C2S(=O)(=O)C1` (stereo not shown) [RA31] the IC50 was 120 ± 45 nM.
`COc1ccc(COC(=O)C2N3C(=O)C(NC(=O)COc4ccc5c(c4)OCc4c-5[nH]c5ccc(Br)cc45)C3SC2(C)C)cc1` (stereo not shown) [RA35] was tested, and the IC50 was 375 ± 22 nM.
`CC(=O)OCC1=C(C(=O)OC(C)(C)C)N2C(=O)C(NC(=O)COc3ccc4c(c3)S(=O)(=O)Nc3c-4[nH]c4ccc(F)cc34)C2SC1` (stereo not shown) [RA36] gave an IC50 of 220 ± 100 nM.
`CCOC(=O)CO/N=C1/Cc2c([nH]c3ccc(F)cc23)-c2ccc(OCC(=O)NC3C(=O)N4C(C(=O)OC(C)(C)C)=C(COC(C)=O)CSC34)cc21` (stereo not shown) [RA37] was tested, and the IC50 was 180 ± 150 nM.
For `CC(=O)OCC1=C(C(=O)OC(C)(C)C)N2C(=O)C(NC(=O)COc3ccc4c(c3)S(=O)(=O)NCc3c-4[nH]c4ccc(F)cc34)C2SC1` (stereo not shown) [RA40], the IC50 was 197 ± 124 nM.
With `CC(C)(C)OC(=O)C1N2C(=O)C(NC(=O)COc3ccc4c(c3)S(=O)(=O)NCc3c-4[nH]c4ccc(F)cc34)C2SC1(C)C` (stereo not shown) [RA42] the IC50 was 292 ± 25 nM.
For `CCNC(=O)C(CCCNC(=O)OCc1ccccc1)NC(=O)CC1C(NC(=O)COc2ccc3c(c2)S(=O)(=O)NCc2c-3[nH]c3ccc(F)cc23)C(=O)N1CC(=O)OCc1ccc(OC)cc1` (stereo not shown) [RA44], the IC50 was 223 ± 22 nM.
With `CC(=O)OCC1=C(C(=O)OC(C)(C)C)N2C(=O)C(NC(=O)COc3ccc4c(c3)CCc3c-4[nH]c4ccc(Cl)cc34)C2SC1` (stereo not shown) [RM36] the IC50 was 280 ± 20 nM.
With `CC(=O)OCC1=C(C(=O)OC(C)(C)C)N2C(=O)[C@@H](NC(=O)COc3ccc4c(c3)CCc3c-4[nH]c4ccc(F)cc34)[C@H]2SC1` [RM37, (6R, 7R)-tert-butyl-7-(2-(8-fluoro-6,11-dihydro-5H-benzo[a]carbazol-3-yloxy)acetamido)-3-(acetoxymethyl)-8-oxo-5-thia-1-azabicyclo[4.2.0]oct-2-ene-2-carboxylate] the IC50 was 222 ± 44 nM.
For `CC(=O)OCC1=C(C(=O)OC(C)(C)C)N2C(=O)C(NC(=O)COc3ccc4c(c3)/C(=N\O)Cc3c-4[nH]c4ccc(F)cc34)C2SC1` (stereo not shown) [RM38], the IC50 was 222 ± 210 nM.
In the case of `CC(=O)OCC1=C(C(=O)OC(C)(C)C)N2C(=O)C(NC(=O)COc3ccc4c(c3)C(=O)Cc3c-4[nH]c4ccc(C(F)(F)F)cc34)C2SC1` (stereo not shown) [RM39], the IC50 is reported as 232 ± 200 nM.
`COc1ccc(COC(=O)C2N3C(=O)C(NC(=O)COc4ccc5c(c4)S(=O)(=O)CCc4c-5[nH]c5ccc(F)cc45)C3SC2(C)C)cc1` (stereo not shown) [RM43] showed an IC50 of 228 ± 16 nM.
With `CC(=O)OCC1=C(C(=O)OC(C)(C)C)N2C(=O)C(NC(=O)COc3ccc4c(c3)CCc3c-4[nH]c4ccc(Br)cc34)C2SC1` (stereo not shown) [RM47] the IC50 was 195 ± 22 nM.
For `CCOC(=O)/C(COc1ccc2c(ccc3c4cc(Cl)ccc4n(CCCN(C)C)c23)c1)=N/OC` [RM66], the IC50 was 2700 ± 120 nM.

Same assay, conditions: read-out: % inhibition at 10 uM of p53/MDM2 complex binding
Compound `COC(=O)C(NC(=O)COc1ccc2c(ccc3c4cc(Cl)ccc4n(CCCN(C)C)c23)c1)c1ccccc1` (stereo not shown) [RM85] has an inhibition at 10 µM of 82%.

The compounds below were run on U343MG (assay: Effect on cell cycle (U343MG)). Settings: FIG. 6.
Assay type: cell-based, human
Method: 7) Effect of RM37 on cell cycle (U343MG; 1,2). […] The results are set out in FIG. 6.
With `CC(=O)OCC1=C(C(=O)OC(C)(C)C)N2C(=O)[C@@H](NC(=O)COc3ccc4c(c3)CCc3c-4[nH]c4ccc(F)cc34)[C@H]2SC1` [RM37, (6R, 7R)-tert-butyl-7-(2-(8-fluoro-6,11-dihydro-5H-benzo[a]carbazol-3-yloxy)acetamido)-3-(acetoxymethyl)-8-oxo-5-thia-1-azabicyclo[4.2.0]oct-2-ene-2-carboxylate] the “Effect on cell cycle” value was “blocks the cell cycle in G1”.

The compounds below were run on U343MG (assay: Effect on cell apoptosis (U343MG)). Settings: FIG. 7 and FIG. 8.
Assay type: cell-based, human
Method: 8) Effect of RM37 on cell apoptosis (U343MG; 1,2). […] The results are set out in FIG. 7 and FIG. 8.
For `CC(=O)OCC1=C(C(=O)OC(C)(C)C)N2C(=O)[C@@H](NC(=O)COc3ccc4c(c3)CCc3c-4[nH]c4ccc(F)cc34)[C@H]2SC1` [RM37, (6R, 7R)-tert-butyl-7-(2-(8-fluoro-6,11-dihydro-5H-benzo[a]carbazol-3-yloxy)acetamido)-3-(acetoxymethyl)-8-oxo-5-thia-1-azabicyclo[4.2.0]oct-2-ene-2-carboxylate], the “Effect on cell apoptosis” value was “induces cell apoptosis”.

Each compound was assayed on p53 (assay: Stabilisation of p53 (U343MG)). Settings: due to reduction of p53 bonded to MDM2, not mRNA induction, FIG. 1.
Assay type: cell-based, human
`CC(=O)OCC1=C(C(=O)OC(C)(C)C)N2C(=O)[C@@H](NC(=O)COc3ccc4c(c3)CCc3c-4[nH]c4ccc(F)cc34)[C@H]2SC1` [RM37, (6R, 7R)-tert-butyl-7-(2-(8-fluoro-6,11-dihydro-5H-benzo[a]carbazol-3-yloxy)acetamido)-3-(acetoxymethyl)-8-oxo-5-thia-1-azabicyclo[4.2.0]oct-2-ene-2-carboxylate] was tested, and the “Stabilisation of p53” value was “stabilisation of p53”.

The compounds below were run on protein p53 (assay: Stabilisation of intracellular levels of protein p53 (343MG)). Settings: U343MG; FIG. 3.
Assay type: cell-based, human
Text: 1) Costa, B; Grillone, A F; Salvetti, A; Rocchiccioli, S; Iacopetti, P; Daniele, S; Da Pozzo, E; Campiglia, P; Novellino, E; Martini, C; Rossi, L An antibody-free strategy for screening putative HDM2 inhibitors using crude bacterial lysates expressing GST-HDM2 recombinant protein Drug Testing and Analysis (2013), 5, 7, 596-601.
2) Costa B, Bendinelli S, Gabelloni P, Da Pozzo E, Daniele S, et al. Human Glioblastoma Multiforme: p53 Reactivation by a Novel MDM2 Inhibitor. PLoS ONE (2013) 8(8): e72281. doi:10.1371/journal.pone.0072281.
The results are set out in FIG. 3.
In the case of `CC(=O)OCC1=C(C(=O)OC(C)(C)C)N2C(=O)[C@@H](NC(=O)COc3ccc4c(c3)CCc3c-4[nH]c4ccc(F)cc34)[C@H]2SC1` [RM37, (6R, 7R)-tert-butyl-7-(2-(8-fluoro-6,11-dihydro-5H-benzo[a]carbazol-3-yloxy)acetamido)-3-(acetoxymethyl)-8-oxo-5-thia-1-azabicyclo[4.2.0]oct-2-ene-2-carboxylate], the “Stabilisation of intracellular levels of protein p53” value is reported as “stabilises the intracellular levels of protein p53”.

— patent publication US20200299306A1, “COMPOUNDS WITH A BENZO[A]CARBAZOLE STRUCTURE AND USE THEREOF” (UNIVERSITA' DI PISA, priority 2017, published 2020)
